# Measurements from patent publication US12173320B2, “Production of red blood cells and platelets from stem cells” (BOSTON MEDICAL CENTER CORPORATION, priority 2012, dated 2024).
# Tests used:
# [1] = tested on: iPSC-derived MEPs; assay: Live versus dead cell FACS (propidium iodide vs. Hoechst) of MEPs; type: cell-based, human
# Procedure: (§1) 6-formylindolo[3,2-b]carbazole (FICZ), an AHR small molecule agonist, and CH223191, an AHR competitive inhibitor were used for these assays. CH223191 was added to mesoderm cultures at Day 6 at 5 μM (lx) and 2.504 (0.5×). 0.2 μM FICZ was added to cultures at Day 7 and media was added daily. DMSO was used as a vehicle control.
# Roughly 10^5 cells were collected, spun, and re-suspended in 0.5% BSA in PBS. Samples were incubated for 30 min at ambient temperature with human antibodies including CD41a-FITC (BD 555466), CD235-PE (BD 555570), CD71-FITC (BD 555536), washed and spun at 3300 rpm for 7 min, and re-suspended in 0.5% BSA in PBS with 1 ug/ml Propidium Iodide. Samples were run on a BD FACScalibur using Cellquest Pro software and analyzed via FloJo 8.7. For ploidy analysis, cells were treated with 1.5% NP-40 (Boston Bioproducts P-872) and 62.5 ug/ml Propidium Iodide in PBS immediately before FACScalibur interrogation. For murine bone marrow, samples were first incubated for 5 min at ambient temperature with murine conjugated antibody CD16/32 (BD 553142) before a 30 min incubation with c-Kit-PE (BD 553355), CD41a-FITC (BD 553848), Ter119-PE (BD 553673). For cell viability assays, 2-3×10 ^5 cells were collected, re-suspended in 8.8 ug/ml Hoecsht 33342 in PBS supplemented with 5% FBS. Samples were then incubated in the dark at 37° C. for 15 min, washed, and re-suspended in 1 ug/ml Propidium Iodide in 5% FBS. Samples were run on an LSR-II machine with FACSDiva software and analyzed via FloJo 8.7.
# In order to determine whether FICZ-mediated transactivation of the AhR receptor was responsible for the exponential expansion of iPSC-derived MEPs, the previously described Hoecsht/Propidium Iodide apoptosis assay was performed using the known AhR inhibitor CH223191. As previously shown in FIG. 3, fewer cells stained with propidium iodide after FICZ treatment (e.g., 15.5% vs. 8.09%) (FIG. 5E). […] The efficacy of the CH223191 was confirmed by its ability to block CY1^31B1 induction as assayed by qRT-PCR (FIG. 5F).
# [2] = tested on: AhR (CYP1B1 target gene expression) in iPSCs; assay: Quantitative RT-PCR of AhR target gene CYP1B1 in iPSCs; type: cell-based, human
# Procedure: RNA was extracted using the RNeasy kit (Qiagen) according to the manufacturer's instructions and DNase treated using the DNA-free kit (Ambion AM1906). Reverse transcription into cDNA was performed using the High Capacity cDNA Reverse Transcription Kit (Applied Biosystems 4368814). Quantitative (real time) PCR amplification of cDNA was performed using Taqman probes for AHR (Hs00169233 ml), CYP1B1 (Hs002382916 sl), HBA (Hs00361191 gl), HBB (Hs00758889 sl), HBG (Hs01629437 sl), vWF (Hs00169795 ml), PF4 (Hs00427220 gl), NF-E2 (Hs00232351 ml) and CD62P (Hs00927900 ml) and run on the Applied Biosystems StepOne machine. […]
# To characterize AhR expression and functionality in both undifferentiated iPSCs and directly differentiated MEPs, AhR protein levels were determined via Western blot in these populations. AhR receptor was robustly expressed in day 30 and day 60 MEPs (FIG. 4A). However, AhR protein was not detected by western blotting in iPSC populations, and we postulated that AhR was expressed at extremely low levels in iPSCs, i.e., below the level of detectability with the antibodies used for Western blots. To test this hypothesis, the ability of FICZ to induce a prototypic AhR-target gene, CYPIB1, in iPSCs or, as a positive control, MEPs was assessed by quantitative RT-PCR.
# [3] = tested on: AhR (CYP1B1 target gene expression) in MEPs; assay: Quantitative RT-PCR of AhR target gene CYP1B1 in MEPs; type: cell-based, human
# Procedure: as §1
# (§2) RNA was extracted using the RNeasy kit (Qiagen) according to the manufacturer's instructions and DNase treated using the DNA-free kit (Ambion AM1906). Reverse transcription into cDNA was performed using the High Capacity cDNA Reverse Transcription Kit (Applied Biosystems 4368814). Quantitative (real time) PCR amplification of cDNA was performed using Taqman probes for AHR (Hs00169233 ml), CYP1B1 (Hs002382916 sl), HBA (Hs00361191 gl), HBB (Hs00758889 sl), HBG (Hs01629437 sl), vWF (Hs00169795 ml), PF4 (Hs00427220 gl), NF-E2 (Hs00232351 ml) and CD62P (Hs00927900 ml) and run on the Applied Biosystems StepOne machine. Relative gene expression was normalized to B-actin (Hs99999903 ml).
# To characterize AhR expression and functionality in both undifferentiated iPSCs and directly differentiated MEPs, AhR protein levels were determined via Western blot in these populations. […] To test this hypothesis, the ability of FICZ to induce a prototypic AhR-target gene, CYPIB1, in iPSCs or, as a positive control, MEPs was assessed by quantitative RT-PCR.
# [4] = In vivo blood cell counts (Hemavet) in normal mice; set-up: species or system mouse
# Procedure: (§3) C57B16 mice were injected daily intraperitoneally with FICZ suspended in vegetable oil using a weekly dose escalation scheme (Week 1: 1 mg/kg; Week 2: 2 mg/kg; Week 3: 4 mg/kg). Blood cell counts were assayed by Hemavet quantification of peripheral blood bleeds, at all 3 time points (Day 7, 14, and 21). Following the 3 week time point, mice were sacrificed and livers and spleens harvested for quantitative RT-PCR analyses.
# To determine if FICZ treatment or whole animals would affect RBC or platelet production, C57B16 mice were injected daily intraperitoneally with FICZ suspended in vegetable oil using a weekly dose escalation scheme (Week 1: 1 mg/kg; Week 2: 2 mg/kg; Week 3: 4 mg/kg). […] Following the 3 week time point, mice were sacrificed and livers and spleens harvested.
# [5] = tested on: AhR (CYP1B1 target gene expression); assay: In vivo CYP1B1 target gene expression in liver and spleen (quantitative RT-PCR); set-up: species or system mouse; settings: after 3 weeks of FICZ
# Procedure: as §2, §3
# To determine if FICZ treatment or whole animals would affect RBC or platelet production, C57B16 mice were injected daily intraperitoneally with FICZ suspended in vegetable oil using a weekly dose escalation scheme (Week 1: 1 mg/kg; Week 2: 2 mg/kg; Week 3: 4 mg/kg). […]
# [6] = C57B16 mice, daily i.p. dose escalation
smiles,measurement,setting,value
"O=Cc1c2c(cc3c1=Nc1ccccc1-3)=Nc1ccccc1-2 [FICZ, 6-formylindolo[3,2-b]carbazole]",cells stained with propidium iodide,"[1]; D13 MEPs, FICZ added at D7, untreated 15.5%",8.09%
same,population of live cells as delineated by FSC and SSC,[1]; day 15 MEPs + FICZ,32.6%
same,live cells PI- Hoechst+,"[1]; day 15 MEPs + FICZ, gated from FSC vs. SSC population",97.7%
same,cell death by propidium iodide staining and Hoechst dye exclusion,"[1]; day 30 MEPs, versus untreated control",significantly less cell death
same,CYP1B1 expression,[2],statistically significant increases
same,CYP1B1 expression,"[3]; Day 15 MEPs, with vs. without FICZ, normalized to β-actin",statistically significant increases
same,responsiveness to AhR agonist (CYP1B1 RT-PCR),"[3]; MEP, normalized to GAPDH",responsive
same,red blood cell (RBC) counts,[4]; [6],None of the mice in the study showed significant variations
same,white blood cell (WBC) counts,[4]; [6],None of the mice in the study showed significant variations
same,platelet counts,"[4]; C57B16 mice, daily i.p., 1, 2, 4 mg/kg weekly escalation, Day 7, 14 and 21, versus mock or vehicle",increased platelet counts
same,platelet response,"[4]; one mouse immediately exposed to higher doses (4 mg/kg), no week 1 escalation",more immediate and prolific platelet response
same,CYP1B1 target gene expression in liver,[5],robust upregulation
same,CYP1B1 target gene expression in spleen,[5],robust upregulation
